From patent US20150044136A1, “Ophthalmological treatment for michobial infections” (priority 2013, published 2015)

Test system: L929 cells
Assay: Cytotoxicity evaluation, agar overlay, ASTM F895-84 / ISO 10993-5
Type: cell-based
Set-up: key to Zone Description Following 48 Hour Incubation (size of zone of lysis): 0: No detectable zone around or under specimen; 1: Zone limited to area under specimen; 2: Zone extends less than 0.5 cm beyond specimen; 3: Zone extends 0.5 to 1.0 cm beyond specimen; 4: Zone extends greater than 1.0 cm beyond specimen but does not involve entire dish; 5: Zone involves entire dish
Conditions: L929 monolayer, replicate wells
Protocol: ASTM F895-84 Test Method was Utilized.
The Sample was analyzed as described in ASTM F895-84 and ISO 10993-5. Monolayers of L929 cells were grown in six 150 mm cell culture plates (Corning, USA). Following 24 hours to cell passage, the plates were over-layed with agar supplemented dMEM/FBS media as described by the ASTM method. One hundred milligrams of the provided samples was added to the center of four of the over-layed wells. One well was left undisturbed as this served as negative control. An additional well was inoculated with a 2 cm^2 piece of latex rubber. The cells were then incubated in 5% carbon dioxide at 36.5° C.±1 for 24 hours. The plates and cells were evaluated macro and microscopically for signs of malformation, degeneration, sloughing, or lysis of the cells within the zone directly beneath and surrounding the discs. Cells were then re-incubated for an additional 24 hours at the conditions described above and evaluated again. The size of the zone surrounding the inoculated area was evaluated for signs of cell growth inhibition and/cell lysis.
Table 3 contains the numerical values describing the size of zone of lysis surrounding the inoculums as per the ASTM standards. Table 4 contains the relative numerical value describing the number of cells affected within the zone of inhibition or toxicity. Each sample observed is assigned a numerical value based on cellular degradation and/or cell death.
Briefly, number 0=unchanged/no evident cytotoxicity; 5=complete monolayer destruction and severe cytotoxicity. The ASTM and ISO 10993-5 consider a scoring of 3 or higher as toxic.

**Q.** For `Oc1ccccc1` [(+) Control, Phenol], which “Cell Description Following 24 Hour Incubation (condition of cells within the zone of lysis)” value (24 Hour Incubation) is on record?
**A.** Its value is 5 (Greater than 80% of zone affected of zone affected).

**Q.** What about the “Zone Description Following 24 Hour Incubation (size of zone of lysis)” value (24 Hour Incubation) of the same molecule?
**A.** Its value is 4 (Zone extends greater than 1.0 cm beyond specimen but does not involve entire dish).

**Q.** And the “Cell Description Following 48 Hour Incubation (condition of cells within the zone of lysis)” value (48 Hour Incubation)?
**A.** Its value is 5 (Greater than 80% of zone affected of zone affected).

**Q.** What about the “Zone Description Following 48 Hour Incubation (size of zone of lysis)” value (48 Hour Incubation) of the same molecule?
**A.** The value was 5.
